Measurements from patent publication US20110104780A1, “ENCAPSULATION OF LIVING CELLS WITHIN AN AEROSOLIZED SOL-GEL MATRIX” (PURDUE RESEARCH FOUNDATION, priority 2008, published 2011).

Test system: cells coated with sol-gel vapor
Assay: Proton efflux at the cellular surface, self referencing electrode
Format: cell-based
Conditions: 48 hours after coating cells with sol-gel vapor
From the text: Data relating to oxygen influx and proton efflux were collected using a self referencing electrode apparatus.
Proton efflux is the result of a variety of cellular properties including metabolism.

Row | Compound | proton efflux after addition of metabolic disrupter
1 | [N-]=[N+]=[N-].[Na+] [NaN3] | decreasing efflux
2 | CC[C@H]1/C=C/C=C/C[C@@H](C)[C@H](O)[C@@](C)(O)C(=O)[C@@H](C)[C@H](O)[C@@H](C)C(=O)[C@@H](C)[C@H](O)[C@@H](C)/C=C/C(=O)O[C@@H]2[C@H](C)[C@H](CC1)O[C@]1(CC[C@H](C)[C@H](C[C@@H](C)O)O1)[C@H]2C [oligomycin] | decreasing efflux
3 | antimycin A | increasing efflux
